# Measurements as given in patent publication US20180162844A1, “CYCLOPROPANE DERIVATIVE AND DRUG CONTAINING SAME” (EA PHARMA CO., LTD., priority 2015, published 2018).
# Target: T1, human TRPA1 (Homo sapiens, UniProt O75762)
# T1 construct: full-length human TRPA1 gene was amplified; expressed in transfected cells; host or cells: Human embryonic kidney-derived 293T cells, transient transfection with pcDNA3.1/zeo(+) human TRPA1 expression plasmid
# Test: Measurement of TRPA1 antagonist activity (intracellular calcium increase, allylisothiocyanate stimulation, 293T cells transfected with human TRPA1 expression plasmid)
# Type: cell-based
# Conditions: Comparative Examples (Table 8-2); 293T cells expressing human TRPA1, allylisothiocyanate stimulation, FLIPR Calcium4, test substance added 10 min before AITC; read-out: hTRPA1 IC50
# Experimental: Experimental Example 1: Measurement of TRPA1 antagonist Activity
# Human TRPA1 Expression Plasmid
# Using cDNA encoding human TRPA1 (GenBank accession No. NM_007332) (manufactured by Kazusa DNA Research Institute, item No.: FHC07217) as a template, primer 1 (SEQ ID NO: 1) and primer 2 (SEQ ID NO: 2), PCR by PfuUltra High-Fidelity DNA Polymerase (Stratagene) was performed, and full-length human TRPA1 gene was amplified.
# A recognition site (underlined) of restriction enzyme HindIII was added to the 5′ end of human TRPA1 gene, and XbaI site (underlined) was added to the 3′ end of human TRPA1 gene, and GTT of the template sequence was changed to termination codon TAG (bold). The obtained double stranded DNA was enzyme-digested with HindIII and XbaI, and introduced into a multicloning site of expression plasmid pcDNA3.1/zeo(+) (manufactured by Invitrogen) to give a human TRPA1 expression plasmid.
# Human embryonic kidney-derived 293T cells were cultured in Dulbecco's Modified Eagle Medium containing 10% fetal bovine serum, 10 unit penicillin, and 10 μg streptomycin. One day before assay, 3×10^6 of 293T cells were plated on a petri dish having a diameter of 10 cm, and cultured in a CO2 incubator for 24 hr. OPTI-MEM I Reduced Serum Media (Invitrogen). (600 μL), Mirus TransIT-293 (Mirus Bio) (18 μL), and human TRPA1 expression plasmid (6 μg) were mixed, the total amount of the mixture was added to the cells on the petri dish to allow for gene transfer. The cells were recovered about for 8 hr later, plated on a poly-D-lysine coated 384 well black/clear bottom plate at 12,000 cells/well, and cultured overnight.
# Measurement of Intracellular Calcium Increase
# The medium was removed from the 384 well plate, calcium indicator (Molecular Device, trade name: FLIPR Calcium4 Assay Kit) dissolved in HBSS (Thermo Fisher Scientific) (pH 7.2) containing 20 mM HEPES was added (38 μL/well), and the cells were stained in a CO2 incubator for 1 hr. The 384 well plate was stood at room temperature for not less than 15 min, set on FDSS7000 (Hamamatsu Photonics K.K.), and a test substance solution was added at 10 μL/well. After 10 min, allylisothiocyanate solution (12 μL/well) was added, the relative fluorescence intensity was measured for 5 min after addition of the allylisothiocyanate solution.
# Preparation of Test Substance Solution and Allylisothiocyanate Solution
# A test substance solution was prepared to have a composition of HBSS (Thermo Fisher Scientific) (pH 7.2) containing 0.48% dimethyl sulfoxide, a test substance at 4.8-fold concentration of the evaluation concentration, 0.1% bovine serum albumin and 20 mM HEPES. An allylisothiocyanate solution was prepared to have a composition of HBSS (Thermo Fisher Scientific) (pH 7.2) containing 0.1% dimethyl sulfoxide, 100 μM allylisothiocyanate, 0.1% bovine serum albumin and 20 mM HEPES.
# Calculation of Antagonist Activity
# The activity rate of a test substance at each concentration was calculated, wherein the relative fluorescence intensity change of a well free of a test substance and containing allylisothiocyanate is 100% activity rate, and the relative fluorescence intensity change of a well free of a test substance and allylisothiocyanate is 0% activity rate. The inhibitory rate of a test substance at each concentration was calculated by subtracting the activity rate of the test substance from 100% activity rate, and the concentration of a test substance showing 50% inhibitory rate was calculated as IC50 from the sigmoid approximate curve by XLFit (idbs).
# T1 sequence (O75762 whole entry): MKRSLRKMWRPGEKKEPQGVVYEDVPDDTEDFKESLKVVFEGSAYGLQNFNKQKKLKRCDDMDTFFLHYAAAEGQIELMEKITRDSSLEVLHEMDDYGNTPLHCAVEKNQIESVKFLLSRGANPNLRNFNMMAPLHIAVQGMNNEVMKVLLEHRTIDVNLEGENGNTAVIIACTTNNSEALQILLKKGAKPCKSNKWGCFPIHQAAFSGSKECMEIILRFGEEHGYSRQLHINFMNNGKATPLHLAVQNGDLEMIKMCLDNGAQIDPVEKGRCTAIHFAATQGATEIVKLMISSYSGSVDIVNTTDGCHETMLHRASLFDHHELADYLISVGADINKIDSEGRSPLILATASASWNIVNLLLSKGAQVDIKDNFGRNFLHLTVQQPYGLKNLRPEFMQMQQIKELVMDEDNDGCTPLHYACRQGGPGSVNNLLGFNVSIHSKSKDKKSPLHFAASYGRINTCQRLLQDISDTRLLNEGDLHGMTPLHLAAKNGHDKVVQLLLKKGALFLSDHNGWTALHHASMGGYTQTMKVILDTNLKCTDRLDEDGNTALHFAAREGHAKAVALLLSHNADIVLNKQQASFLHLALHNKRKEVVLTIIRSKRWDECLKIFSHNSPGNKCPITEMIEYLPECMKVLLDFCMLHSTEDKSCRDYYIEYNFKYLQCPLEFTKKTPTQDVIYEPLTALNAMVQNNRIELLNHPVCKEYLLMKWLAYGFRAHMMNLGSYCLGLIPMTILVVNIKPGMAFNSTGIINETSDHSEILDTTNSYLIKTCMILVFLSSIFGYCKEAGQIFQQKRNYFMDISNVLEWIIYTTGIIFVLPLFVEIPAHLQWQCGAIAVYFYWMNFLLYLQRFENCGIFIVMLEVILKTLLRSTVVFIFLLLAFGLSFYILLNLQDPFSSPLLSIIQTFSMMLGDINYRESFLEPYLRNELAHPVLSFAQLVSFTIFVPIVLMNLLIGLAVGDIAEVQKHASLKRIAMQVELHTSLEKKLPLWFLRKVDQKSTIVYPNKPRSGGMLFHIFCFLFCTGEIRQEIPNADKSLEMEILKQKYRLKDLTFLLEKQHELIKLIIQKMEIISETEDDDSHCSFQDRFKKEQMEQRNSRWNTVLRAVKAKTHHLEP
row,IC50 [nM],SMILES
1,180,"CC(C)N(C1(C(=O)NCc2cc(-c3ccc(C(F)(F)F)nc3)ncn2)CC1)S(=O)(=O)c1ccc(F)cc1 [Comparative Example 1, 1-[(4-fluorophenyl)sulfonyl-isopropyl-amino]-N-[[6-[6-(trifluoromethyl)-3-pyridyl]pyrimidin-4-yl]methyl]cyclopropanecarboxamide, reference compound]"
2,> 1000,"O=C(NCc1cc(-c2ccc(C(F)(F)F)cc2)nc(N2CCCC2)c1)C1(NS(=O)(=O)c2ccc(F)cc2)CC1 [Comparative Example 2, 1-[(4-fluorophenyl)sulfonylamino]-N-[[2-pyrrolidin-1-yl-6-[4-(trifluoromethyl)phenyl]-4-pyridyl]methyl]cyclopropanecarboxamide, reference compound]"
3,> 1000,"O=C(NCc1cc(-c2ccc(C(F)(F)F)cc2)nc(N2CCCC2)c1)C1(NS(=O)(=O)c2ccco2)CC1 [Comparative Example 3, 1-(2-furylsulfonylamino)-N-[[2-pyrrolidin-1-yl-6-[4-(trifluoromethyl)phenyl]-4-pyridyl]methyl]cyclopropanecarboxamide, reference compound]"
4,> 1000,"O=C(NCc1cc(-c2ccc(C(F)(F)F)cc2)nc(N2CCCC2)c1)C1(NS(=O)(=O)c2ccc(Cl)s2)CC1 [Comparative Example 4, 1-[(5-chloro-2-thienyl)sulfonylamino]-N-[[2-pyrrolidin-1-yl-6-[4-(trifluoromethyl)phenyl]-4-pyridyl]methyl]cyclopropanecarboxamide, reference compound]"

# Same assay, conditions: Examples (Table 8-1); 293T cells expressing human TRPA1, allylisothiocyanate stimulation, FLIPR Calcium4, test substance added 10 min before AITC; read-out: hTRPA1 IC50
row,IC50 [nM],SMILES
1,110,"O=C(NCc1cncc(-c2ccc(C(F)(F)F)cn2)c1)C1(NS(=O)(=O)c2cc3cc(F)ccc3o2)CC1 [Example 10, 1-[(5-fluorobenzofuran-2-yl)sulfonylamino]-N-[[5-[5-(trifluoromethyl)-2-pyridyl]-3-pyridyl]methyl]cyclopropane-carboxamide]"
2,40,"O=C(NCc1cc(-c2ccc(OC(F)(F)F)cc2)ncn1)C1(NS(=O)(=O)c2cc3cc(F)ccc3o2)CC1 [Example 11, 1-[(5-fluorobenzofuran-2-yl)sulfonylamino]-N-[[6-[4-(trifluoromethoxy)phenyl]pyrimidin-4-yl]methyl]cyclopropanecarboxamide]"
3,30,"O=C(NCc1cc(-c2ccc(C(F)(F)F)nc2)ncn1)C1(NS(=O)(=O)c2cc3cc(F)ccc3o2)CC1 [Example 12, 1-[(5-fluorobenzofuran-2-yl)sulfonylamino]-N-[[6-[6-(trifluoromethyl)-3-pyridyl]pyrimidin-4-yl]methyl]cyclopropanecarboxamide]"
4,110,"O=C(NCc1cc(-c2ccc(C(F)(F)F)cn2)ncn1)C1(NS(=O)(=O)c2cc3cc(F)ccc3o2)CC1 [Example 13, 1-[(5-fluorobenzofuran-2-yl)sulfonylamino]-N-[[6-[5-(trifluoromethyl)-2-pyridyl]pyrimidin-4-yl]methyl]cyclopropanecarboxamide]"
5,47,"O=C(NCc1cc(-c2cnc(C(F)(F)F)nc2)ncn1)C1(NS(=O)(=O)c2cc3cc(F)ccc3o2)CC1 [Example 14, 1-[(5-fluorobenzofuran-2-yl)sulfonylamino]-N-[[6-[2-(trifluoromethyl)pyrimidin-5-yl]pyrimidin-4-yl]methyl]cyclopropanecarboxamide]"
6,310,"O=C(NCc1cnnc(-c2ccc(C(F)(F)F)cc2)c1)C1(NS(=O)(=O)c2cc3cc(F)ccc3o2)CC1 [Example 15, 1-[(5-fluorobenzofuran-2-yl)sulfonylamino]-N-[[6-[4-(trifluoromethyl)phenyl]pyridazin-4-yl]methyl]cyclopropanecarboxamide]"
7,990,"O=C(NCc1cnnc(-c2ccc(C(F)(F)F)nc2)c1)C1(NS(=O)(=O)c2cc3cc(F)ccc3o2)CC1 [Example 16, 1-[(5-fluorobenzofuran-2-yl)sulfonylamino]-N-[[6-[6-(trifluoromethyl)-3-pyridyl]pyridazin-4-yl]methyl]cyclopropanecarboxamide]"
8,240,"O=C(NCc1cc(-c2ccc(C(F)(F)F)cn2)cnn1)C1(NS(=O)(=O)c2cc3cc(F)ccc3o2)CC1 [Example 17, 1-[(5-fluorobenzofuran-2-yl)sulfonylamino]-N-[[5-[5-(trifluoromethyl)-2-pyridyl]pyridazin-3-yl]methyl]cyclopropanecarboxamide]"

# More lines, now with the values behind:
row,SMILES,IC50 [nM]
1,"O=C(NCc1cc(-c2ccc(C(F)(F)F)cc2)ncn1)C1(NS(=O)(=O)c2cc3cc(F)ccc3o2)CC1 [Example 1, 1-[(5-fluorobenzofuran-2-yl)sulfonylamino]-N-[[6-[4-(trifluoromethyl)phenyl]pyrimidin-4-yl]methyl]cyclopropanecarboxamide]",33
2,"O=C(NCc1ccnc(-c2cnc(C(F)(F)F)nc2)c1)C1(NS(=O)(=O)c2cc3cc(F)ccc3o2)CC1 [Example 2, 1-[(5-fluorobenzofuran-2-yl)sulfonylamino]-N-[[2-[2-(trifluoromethyl)pyrimidin-5-yl]-4-pyridyl]methyl]cyclopropane-carboxamide]",120
3,"O=C(NCc1ccnc(-c2ccc(C(F)(F)F)cc2O)c1)C1(NS(=O)(=O)c2cc3cc(F)ccc3o2)CC1 [Example 3, 1-[(5-fluorobenzofuran-2-yl)sulfonylamino]-N-[[2-[2-hydroxy-4-(trifluoromethyl)phenyl]-4-pyridyl]methyl]cyclopropane-carboxamide]",72
4,"O=C(NCc1cc(-c2ccc(C(F)(F)F)cn2)ccn1)C1(NS(=O)(=O)c2cc3cc(F)ccc3o2)CC1 [Example 4, 1-[(5-fluorobenzofuran-2-yl)sulfonylamino]-N-[[4-[5-(trifluoromethyl)-2-pyridyl]-2-pyridyl]methyl]cyclopropane-carboxamide]",22
5,"O=C(NCc1cc(-c2cnc(C(F)(F)F)nc2)ccn1)C1(NS(=O)(=O)c2cc3cc(F)ccc3o2)CC1 [Example 5, 1-[(5-fluorobenzofuran-2-yl)sulfonylamino]-N-[[4-[2-(trifluoromethyl)pyrimidin-5-yl]-2-pyridyl]methyl]cyclopropane-carboxamide]",260
6,"O=C(NCc1cc(-c2ncc(C(F)(F)F)cn2)ccn1)C1(NS(=O)(=O)c2cc3cc(F)ccc3o2)CC1 [Example 6, 1-[(5-fluorobenzofuran-2-yl)sulfonylamino]-N-[[4-[5-(trifluoromethyl)pyrimidin-2-yl]-2-pyridyl]methyl]cyclopropane-carboxamide]",230
7,"O=C(NCc1cc(-c2cnc(C(F)(F)F)cn2)ccn1)C1(NS(=O)(=O)c2cc3cc(F)ccc3o2)CC1 [Example 7, 1-[(5-fluorobenzofuran-2-yl)sulfonylamino]-N-[[4-[5-(trifluoromethyl)pyrazin-2-yl]-2-pyridyl]methyl]cyclopropane-carboxamide]",170
8,"O=C(NCc1cc(-c2ccc(C(F)(F)F)nn2)ccn1)C1(NS(=O)(=O)c2cc3cc(F)ccc3o2)CC1 [Example 8, 1-[(5-fluorobenzofuran-2-yl)sulfonylamino]-N-[[4-[6-(trifluoromethyl)pyridazin-3-yl]-2-pyridyl]methyl]cyclopropane-carboxamide]",74
9,"O=C(NCc1cncc(-c2ccc(C(F)(F)F)nc2)c1)C1(NS(=O)(=O)c2cc3cc(F)ccc3o2)CC1 [Example 9, 1-[(5-fluorobenzofuran-2-yl)sulfonylamino]-N-[[5-[6-(trifluoromethyl)-3-pyridyl]-3-pyridyl]methyl]cyclopropane-carboxamide]",170
